Reference: patent publication US8163770B2, “Benzoxathiin derivative” (MSD. K. K., priority 2005, dated 2012)
Like-named read-outs stand apart in the source and are kept apart here.

How the values were obtained:
histamine-H3 receptor = biological target: T1, histamine-H3 receptor (Rattus norvegicus, UniProt Q9QYN8); assay: Test for antagonistic effect to water-drinking action induced by histamine-H3 receptor selective agonist, R-α-methylhistamine; assay type: in vivo; settings: 10 mg/kg oral, 2 hours before R-α-methylhistamine, water drunk for 1 hour
T1 construct: from tissue; host or cells: living male rat
T1 sequence (Q9QYN8 whole entry): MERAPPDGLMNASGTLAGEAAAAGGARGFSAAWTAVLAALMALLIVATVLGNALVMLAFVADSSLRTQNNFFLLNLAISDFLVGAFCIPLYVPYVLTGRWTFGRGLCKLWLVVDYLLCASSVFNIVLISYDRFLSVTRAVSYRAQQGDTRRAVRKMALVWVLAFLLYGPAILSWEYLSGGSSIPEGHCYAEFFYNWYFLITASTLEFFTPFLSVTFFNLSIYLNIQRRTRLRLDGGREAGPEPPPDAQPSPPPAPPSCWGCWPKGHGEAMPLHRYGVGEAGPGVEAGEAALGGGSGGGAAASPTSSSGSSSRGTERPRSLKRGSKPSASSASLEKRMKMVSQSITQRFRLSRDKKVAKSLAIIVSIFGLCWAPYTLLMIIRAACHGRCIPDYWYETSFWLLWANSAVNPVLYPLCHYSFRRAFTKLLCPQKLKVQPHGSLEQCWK
Protocol: Under anesthesia with ketamine xylazine (74 and 11 mg/kg intraabdominal single administration), a brain stereotaxic device was set in the third ventricle of a male DS rat (7 to 10-week age, 200 to 300 g), and a chronic guide cannula (26 gauge, length 11 mm) was inserted into it and fixed with a dental resin. The position of the tip of the guide cannula is at 2.2 mm after the bregma on the midline, and at a depth of 8 mm from the surface of the skull. After a restoration term of about 1 week, R-α-methylhistamine (0.3 μg/1 μL/head, 30% propylene glycol liquid) was administered into the third ventricle. The test compound suspended in an aqueous 0.5% methyl cellulose solution was orally administered to the rat before 2 hours before the R-α-methylhistamine administration; and after the R-α-methylhistamine administration, the amount of water drunk by the rat for 1 hour was measured.

[1] = Test for brain/cerebrospinal fluid transition; assay type: in vivo; settings: SD male rat, 2 hours after oral administration (10 mg/kg)
Protocol: The test compound was orally or intravenously administered to an SD male rat (7 to 10-week age, 200 to 400 g), and under anesthesia with ether for a predetermined period of time, the whole blood was collected from it through the abdominal aorta thereof using a heparin-processed syringe. Next, the head skin was cut, and a dental 30 G needle was stuck into the cervical spine to run through the subarachnoid cavity. Via a tube connected to the dental 30 G needle, from 50 to 100 μL of the cerebrospinal fluid was collected in a 1-mL syringe, and then the brain was taken out. The blood sample was centrifuged (4° C., 6000 revolutions, 10 minutes), and the resulting plasma was stirred with ethanol (containing an internal standard substance) in an amount of three times thereof added to it. The brain sample was homogenized with 2 mL of water added thereto; and a part of it was taken out and stirred with ethanol (containing an internal standard substance) in an amount of three times thereof added to it. The cerebrospinal fluid was stirred with ethanol (containing an internal standard substance) in an amount of three times thereof added to it. The above samples were left at −20° C. for 20 minutes, then centrifuged (4° C., 12,000 g, 10 minutes), and the supernatant was analyzed through LC/MS/MS. According to a relative calibration curve method, the compound concentration in the plasma, in the brain and in the cerebrospinal fluid was determined.

inhibition of the increase in the water drinking induced by R-α-methylhistamine in the third ventricle (histamine-H3 receptor): significantly inhibited
concentration in the brain [1]: 6.96 nmol/g
concentration at 2 h ([1]; cerebrospinal fluid, read-out: concentration in the cerebrospinal fluid): 174 nM
concentration at 2 h ([1]; plasma, read-out: concentration in the plasma): 980 nM
SMILES: C[C@H]1[C@H](c2ccc(OCCCN3CCCC3)cc2)Oc2ccccc2S1(=O)=O (single isomer, unassigned) [(2S*,3S*)-2,3-dihydro-3-methyl-2-[4-[3-(1-pyrrolidinyl)propoxy]phenyl]-1,4-benzoxathiin-4,4-dioxide]
